Measured values from patent US10556900B2, “TrkA kinase inhibitors, compositions and methods thereof” (Merck Sharp & Dohme Corp., priority 2015, dated 2020).

Biological target: human TrkA receptor (Homo sapiens (Human), UniProt P04629)
Experiment: TrkA functional activity, DiscoverX PathHunter assay (NGF-stimulated U2OS cells)
Format: cell-based
Conditions: U2OS cells expressing human TrkA-Prolink, Shc1-EA and p75NTR; compound 1 h, then NGF (~80% of maximal response) 3 h; luminescence
Protocol: TrkA functional activity was measured using a DiscoverX PathHunter assay. In this assay, U2OS cells express the human TrkA receptor as a fusion with the weakly complementing fragment of B-galactosidase, which DiscoverX calls “Prolink (PK)”; additionally, Shc1 is fused with a larger fragment, which is called “Enzyme Acceptor (EA)”. Activation of the TrkA receptor, upon NGF addition, results in the kinase domain being phosphorylated, resulting in subsequent recruitment of Shc1-EA protein. That recruitment results in an active B-galactosidase enzyme that is detected by addition of a chemiluminescent substrate. The human p75^NTR protein was also expressed as a co-receptor for NGF.
All reagents were purchased from DiscoverX, except for the receptor agonists (NGF, BDNF, NT3) which were purchased from Peprotech. Cells were expanded and frozen into cryovials, and stored in the vapor phase of liquid nitrogen, and thawed immediately before use. Thawed cells were added to a 384-well plate at 7500 cells/well, and allowed to incubate overnight. Compound at various concentrations was added the following morning and allowed to incubate on cells for 1 h. Then, NGF was added at a concentration sufficient to elicit ˜80% of a maximal response and allowed to incubate for 3 h at ambient temperature. DiscoverX PathHunter detection reagent was then added and the plate was further incubated for 1 h in the dark. The plate was then read via luminescence on the Perkin Elmer Envision.

human TrkA receptor, sequence (P04629 33-796): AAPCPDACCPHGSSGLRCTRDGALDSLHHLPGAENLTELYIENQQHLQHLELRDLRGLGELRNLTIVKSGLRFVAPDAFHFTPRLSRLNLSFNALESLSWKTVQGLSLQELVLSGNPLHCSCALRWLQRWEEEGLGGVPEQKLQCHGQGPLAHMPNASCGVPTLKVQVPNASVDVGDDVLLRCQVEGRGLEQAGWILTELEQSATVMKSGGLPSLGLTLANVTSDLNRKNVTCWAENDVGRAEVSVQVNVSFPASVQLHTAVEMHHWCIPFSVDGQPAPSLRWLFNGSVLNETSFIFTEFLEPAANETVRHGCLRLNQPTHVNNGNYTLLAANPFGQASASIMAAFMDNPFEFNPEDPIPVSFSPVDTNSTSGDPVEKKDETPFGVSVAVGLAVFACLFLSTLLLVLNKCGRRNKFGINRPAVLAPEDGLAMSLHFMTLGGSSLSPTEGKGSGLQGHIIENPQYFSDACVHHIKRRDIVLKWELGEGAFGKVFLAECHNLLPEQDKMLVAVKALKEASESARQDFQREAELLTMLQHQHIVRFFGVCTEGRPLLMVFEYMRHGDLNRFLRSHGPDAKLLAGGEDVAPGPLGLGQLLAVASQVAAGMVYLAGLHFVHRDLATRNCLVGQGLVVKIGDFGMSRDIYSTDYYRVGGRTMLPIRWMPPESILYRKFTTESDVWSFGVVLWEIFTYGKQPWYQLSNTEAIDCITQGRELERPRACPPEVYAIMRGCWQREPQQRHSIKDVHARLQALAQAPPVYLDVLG

IC50 [nM] | Compound
32 | Cn1ccc(-c2cc(C(=O)Nc3cn4c(C(=O)O)ncc4nc3-c3ccccc3)c(F)cc2C(F)(F)F)n1 [Compound 63, 3-(2-Fluoro-5-(1-methyl-1H-pyrazol-3-yl)-4-(trifluoromethyl)benzamido)-2-phenylimidazo[1,5-a]pyrimidine-6-carboxylic acid]
201 | CC(C)(O)c1cnc2c(NC(=O)c3cc(-c4ncccn4)c(C(F)(F)F)cc3F)c(-c3cccc(CO)c3)ccn12 [Compound 57, 2-Fluoro-N-(7-(3-(hydroxymethyl)phenyl)-3-(2-hydroxypropan-2-yl)imidazo[1,2-a]pyridin-8-yl)-5-(pyrimidin-2-yl)-4-(trifluoromethyl)benzamide]
0.31 | CC(O)c1cnc2c(NC(=O)c3cc(-c4ccn(C)n4)c(C(F)(F)F)cc3F)c(-c3ccccc3)ccn12 (single isomer, unassigned) [Compound 26, (R) or (S)-2-fluoro-N-[3-(1-hydroxyethyl)-7-phenylimidazo[1,2-a]pyridin-8-yl]-5-(1-methyl-1H-pyrazol-3-yl)-4-(trifluoromethyl)benzamide]
5.1 | CC(O)c1cnc2c(NC(=O)c3cc(-c4ncccn4)c(C(F)(F)F)cc3F)c(-c3ccccc3)ncn12 (single isomer, unassigned) [Compound 72, (R and S)-2-Fluoro-N-(3-(1-hydroxyethyl)-7-phenylimidazo[1,2-c]pyrimidin-8-yl)-5-(pyrimidin-2-yl)-4-(trifluoromethyl)benzamide]
16 | CC(C)(O)c1cnc2c(NC(=O)c3cc(-c4ncccn4)c(C(F)(F)F)cc3Cl)c(-c3ccccc3)ccn12 [Compound 20, 2-chloro-N-[3-(1-hydroxy-1-methylethyl)-7-phenylimidazo[1,2-a]pyridin-8-yl]-5-pyrimidin-2-yl-4-(trifluoromethyl)benzamide]
4.2 | [2H]C(C)(O)c1cnc2c(NC(=O)c3cc(-c4ncccn4)c(C(F)(F)F)cc3F)c(-c3ccccc3)ccn12 (single isomer, unassigned) [Compound 74, (R and S)-2-Fluoro-N-(3-(1-hydroxyethyl-1-d)-7-phenylimidazo[1,2-a]pyridin-8-yl)-5-(pyrimidin-2-yl)-4-(trifluoromethyl)benzamide]
0.94 | CC(C)(O)c1cnc2c(NC(=O)c3cc(-c4cc[nH]n4)c(C(F)(F)F)cc3F)c(-c3ccccc3)ccn12 [Compound 31, 2-fluoro-N-[3-(1-hydroxy-1-methylethyl)-7-phenylimidazo[1,2-a]pyridin-8-yl]-5-(1H-pyrazol-3-yl)-4-(trifluoromethyl)benzamide]
1.8 | CC(C)(O)c1cnn2c(NC(=O)c3cc(-c4ncccn4)c(C(F)(F)F)cc3F)c(-c3ccccc3)ccc12 [Compound 38, 2-fluoro-N-[3-(1-hydroxy-1-methylethyl)-6-phenylpyrazolo[1,5-a]pyridin-7-yl]-5-pyrimidin-2-yl-4-(trifluoromethyl)benzamide]
0.52 | Cn1ccc(-c2cc(C(=O)Nc3c(-c4ccccc4)ccn4c(CO)cnc34)c(F)cc2C(F)(F)F)n1 [Compound 23, 2-fluoro-N-[3-(hydroxymethyl)-7-phenylimidazo[1,2-a]pyridin-8-yl]-5-(1-methyl-1H-pyrazol-3-yl)-4-(trifluoromethyl)benzamide]
2 | [2H]C(C)(O)c1cnc2c(NC(=O)c3cc(-c4ncccn4)c(C(F)(F)F)cc3F)c(-c3ccccc3)ccn12 (single isomer, unassigned) [Compound 75, (R and S)-2-Fluoro-N-(3-(1-hydroxyethyl-1-d)-7-phenylimidazo[1,2-a]pyridin-8-yl)-5-(pyrimidin-2-yl)-4-(trifluoromethyl)benzamide]
4.4 | Cn1ccc(-c2cc(C(=O)Nc3cn4c(CO)ncc4cc3-c3ccccc3)c(F)cc2C(F)(F)F)n1 [Compound 65, 2-Fluoro-N-(3-(hydroxymethyl)-7-phenylimidazo[1,5-a]pyridin-6-yl)-5-(1-methyl-1H-pyrazol-3-yl)-4-(trifluoromethyl)benzamide]
28 | NC(=O)Cc1cnc2c(NC(=O)c3cc(-c4ncccn4)c(C(F)(F)F)cc3F)c(-c3ccccc3)ccn12 [Compound 50, N-(3-(2-Amino-2-oxoethyl)-7-phenylimidazo[1,2-a]pyridin-8-yl)-2-fluoro-5-(pyrimidin-2-yl)-4-(trifluoromethyl)benzamide]
2.2 | CC(O)c1cnc2c(NC(=O)c3ccc(C(F)(F)F)c(-c4ccn(C)n4)c3)c(-c3ccccc3)ccn12 (single isomer, unassigned) [Compound 15, (R) or (S)-N-[3-(1-hydroxyethyl)-7-phenylimidazo[1,2-a]pyridin-8-yl]-3-(1-methyl-1H-pyrazol-3-yl)-4-(trifluoromethyl)benzamide]
4.8 | CC(C)(O)c1cnc2c(NC(=O)c3cc(-c4ncccn4)c(C(F)(F)F)cc3F)c(-c3ccccc3)ncn12 [Compound 73, 2-Fluoro-N-(3-(2-hydroxypropan-2-yl)-7-phenylimidazo[1,2-c]pyrimidin-8-yl)-5-(pyrimidin-2-yl)-4-(trifluoromethyl)benzamide]
29 | CC(O)c1cnc2c(NC(=O)c3cc(-c4ncccn4)c(C(F)(F)F)cc3F)c(-c3ccc(F)cc3)ccn12 (single isomer, unassigned) [Compound 53, (R) or (S)-2-fluoro-N-[7-(4-fluorophenyl)-3-(1-hydroxyethyl)imidazo[1,2-a]pyridin-8-yl]-5-pyrimidin-2-yl-4-(trifluoromethyl)benzamide]
82 | Cc1ccccc1-c1ccn2c(C(C)(C)O)cnc2c1NC(=O)c1cc(-c2ncccn2)c(C(F)(F)F)cc1F [Compound 55, 2-Fluoro-N-(3-(2-hydroxypropan-2-yl)-7-(o-tolyl)imidazo[1,2-a]pyridin-8-yl)-5-(pyrimidin-2-yl)-4-(trifluoromethyl)benzamide]
56 | Cn1ccc(-c2cc(C(=O)Nc3c(-c4ccccc4)ccn4c(C(N)=O)cnc34)sc2C(F)(F)F)n1 [Compound 67, 8-(4-(1-Methyl-1H-pyrazol-3-yl)-5-(trifluoromethyl)thiophene-2-carboxamido)-7-phenylimidazo[1,2-a]pyridine-3-carboxamide]
232 | O=C(Nc1c(-c2cccc(CO)c2)ccn2ccnc12)c1cc(-c2ncccn2)c(C(F)(F)F)cc1F [Compound 58, 2-Fluoro-N-(7-(3-(hydroxymethyl)phenyl)imidazo[1,2-a]pyridin-8-yl)-5-(pyrimidin-2-yl)-4-(trifluoromethyl)benzamide]
4.3 | CC(C)(O)c1n[nH]c2c(NC(=O)c3cc(-c4ncccn4)c(C(F)(F)F)cc3F)c(-c3ccccc3)ccc12 [Compound 45, 2-Fluoro-N-(3-(2-hydroxypropan-2-yl)-6-phenyl-1H-indazol-7-yl)-5-(pyrimidin-2-yl)-4-(trifluoromethyl)benzamide]
1.9 | CC(C)(O)c1cnc2c(NC(=O)c3cc(-c4ccccn4)c(C(F)(F)F)cc3F)c(-c3ccccc3)ccn12 [Compound 19, 2-fluoro-N-[3-(1-hydroxy-1-methylethyl)-7-phenylimidazo[1,2-a]pyridin-8-yl]-5-pyridin-2-yl-4-(trifluoromethyl)benzamide]
5.1 | CC(O)c1cnc2c(NC(=O)c3ccc(C(F)(F)F)c(-c4ccn(C)n4)c3)c(-c3ccccc3)ccn12 (single isomer, unassigned) [Compound 14, (R) or (S)-N-[3-(1-hydroxyethyl)-7-phenylimidazo[1,2-a]pyridin-8-yl]-3-(1-methyl-1H-pyrazol-3-yl)-4-(trifluoromethyl)benzamide]
5 | CC(=O)c1c[nH]c2c(NC(=O)c3ccc(C(F)(F)F)c(-c4ccn(C)n4)c3)c(-c3ccccc3)ccc12 [Compound 43, N-(3-Acetyl-6-phenyl-1H-indol-7-yl)-3-(1-methyl-1H-pyrazol-3-yl)-4-(trifluoromethyl)benzamide]
3.7 | NC(=O)c1cnc2c(NC(=O)c3cc(-c4ccccn4)c(C(F)(F)F)cc3F)c(-c3ccccc3)ccn12 [Compound 21, 8-({[2-fluoro-5-pyridin-2-yl-4-(trifluoromethyl)phenyl]carbonyl}amino)-7-phenylimidazo[1,2-a]pyridine-3-carboxamide]
4.9 | CC(O)c1cnc2c(NC(=O)c3cc(-c4ncccn4)c(C(F)(F)F)cc3F)c(-c3ccc(F)cc3)ccn12 (single isomer, unassigned) [Compound 52, (R) or (S)-2-fluoro-N-[7-(4-fluorophenyl)-3-(1-hydroxyethyl)imidazo[1,2-a]pyridin-8-yl]-5-pyrimidin-2-yl-4-(trifluoromethyl)benzamide]
0.9 | CC(O)c1n[nH]c2c(NC(=O)c3ccc(C(F)(F)F)c(-c4ccn(C)n4)c3)c(-c3ccccc3)ccc12 (single isomer, unassigned) [Compound 48, (R) or (S)-N-[3-(1-hydroxyethyl)-6-phenyl-1H-indazol-7-yl]-3-(1-methyl-1H-pyrazol-3-yl)-4-(trifluoromethyl)benzamide]
2.1 | NC(=O)c1cnc2c(NC(=O)c3cc(-c4ncccn4)c(C(F)(F)F)cc3F)c(-c3ccccc3)ccn12 [Compound 7, 8-(2-Fluoro-5-(pyrimidin-2-yl)-4-(trifluoromethyl)benzamido)-7-phenylimidazo[1,2-a]pyridine-3-carboxamide]
